These results are taken from patent US9012635B2, “Pyridone amides and analogs exhibiting anti-cancer and anti-proliferative activities” (Deciphera Pharmaceuticals, LLC, priority 2013, dated 2015).

For experiment [1], the target named is T1, Phospho-MET in EBC-1 cells (Homo sapiens, UniProt P08581).
T1 construct: endogenous in cells; host or cells: EBC-1 (JCRB0820)
Nature of the experiment: EBC-1 phospho-MET ELISA. Type of experiment: cell-based. The following applies: 6 h compound, 40 ng/mL HGF 10 min, read-out: EBC1 pMET. The procedure: (§1) EBC-1 cells (catalog #JCRB0820) were obtained from the Japan Health Science Research Resources Bank, Osaka, Japan. Briefly, cells were grown in DMEM supplemented with 10% characterized fetal bovine serum (Invitrogen, Carlsbad, Calif.) at 37° C., 5% CO2, 95% humidity. Cells were allowed to expand until reaching 70-95% confluency at which point they were subcultured or harvested for assay use.
Fifteen thousand cells in DMEM supplemented with 0.5% characterized fetal bovine serum (FBS; Invitrogen, Carlsbad, Calif.) were added per well in a 96-well black clear bottom plate (Corning, Corning, N.Y.). Cells were then incubated overnight at 37 degrees Celsius, 5% CO2, 95% humidity. A serial dilution of test compound was dispensed into another 96-well black clear bottom plate (Corning, Corning, N.Y.) containing DMEM supplemented with 0.5% FBS. Diluted compound was then added to plates containing cells and incubated for 6 hours at 37 degrees Celsius, 5% CO2, 95% humidity. Cells were stimulated with 40 ng/mL HGF (R&D Systems, Minneapolis, Minn.) for 10 minutes, and then lysed. Phospho-MET in cell lysates was detected using the DuoSet IC Human Phospho-HGF R/c-MET ELISA (R&D Systems, Minneapolis, Minn.). Data was analyzed using Prism software (Graphpad, San Diego, Calif.) to calculate IC50 values.

The target in experiment [2] is KDR kinase (Seq ID No. 3) (Homo sapiens, UniProt P35968, DEL940-989/E990V). Description: KDR kinase assay (assays K1, K2, K3). The class given is biochemical. The following applies: enzymatic assay; variant K1, K2 or K3 not given. The method, then: The activity of KDR kinase was determined by following the production of ADP from the kinase reaction through coupling with the pyruvate kinase/lactate dehydrogenase system (e.g., Schindler et al. Science 2000, 289, pp. 1938-1942). In this assay, the oxidation of NADH (thus the decrease at A340 nm) was continuously monitored spectrophotometrically. The reaction mixture (100 μl) contained KDR (Seq ID No. 3, 1.5 nM to 7.1 nM, nominal concentration), polyE4Y (1 mg/mL), pyruvate kinase (3.5 units), lactate dehydrogenase (5.5 units), phosphoenolpyruvate (1 mM), and NADH (0.28 mM) in 60 mM Tris buffer containing 0.13% octyl-glucoside, 13 mM MgCl2, 6.8 mM DTT, test compound, and 3.5% DMSO at pH 7.5. The reaction was initiated by adding ATP (0.2 mM, final concentration). The absorption at 340 nm was continuously monitored for 3 h at 30° C. on a Polarstar Optima plate reader (BMG) or instrument of similar capacity. The reaction rate was calculated using the 1 h to 2 h time frame. Percent inhibition was obtained by comparison of reaction rate with that of a control (i.e., with no test compound). IC50 values were calculated from a series of percent inhibition values determined at a range of inhibitor concentrations using software routines as implemented in the GraphPad Prism software package.
Chain of KDR kinase (Seq ID No. 3) (P35968 with tags, fused parts or gaps DEL940-989/E990V): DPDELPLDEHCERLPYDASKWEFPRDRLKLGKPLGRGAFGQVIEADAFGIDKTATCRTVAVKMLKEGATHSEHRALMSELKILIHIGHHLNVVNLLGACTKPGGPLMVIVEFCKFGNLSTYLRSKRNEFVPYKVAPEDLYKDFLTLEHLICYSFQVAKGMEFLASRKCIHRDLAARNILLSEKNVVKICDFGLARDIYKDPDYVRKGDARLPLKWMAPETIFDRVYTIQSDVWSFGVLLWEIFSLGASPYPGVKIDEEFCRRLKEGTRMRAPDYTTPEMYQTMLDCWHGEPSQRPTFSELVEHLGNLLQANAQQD
KDR kinase assay K2 is the same as for assay K1 except that (1) a nominal concentration of 2.1 nM of enzyme was employed (2) the reaction was pre-incubated with test compound at 30° C. for 2 h prior to initiation with ATP and (3) 1.0 mM ATP (final concentration) was used to initiate the reaction.
KDR kinase assay K3 is the same as for assay K1 except that (1) a nominal concentration of 1.1 nM of enzyme was employed, (2) the buffer components per 100 μl reaction mixture were as follows: 75 mM Tris buffer containing 0.066% octyl-glucoside, 17 mM MgCl2, and 1% DMSO at pH 7.5, (3) the final concentration of DTT was 0.66 mM, (4) the reaction was pre-incubated with test compound at 30° C. for 1 h prior to initiation with ATP, and (5) 1.0 mM ATP (final concentration) was used to initiate the reaction.

Experiment [3] deals with T2, Phospho-MET in MKN-45 cells (Homo sapiens, UniProt P08581).
T2 construct: endogenous in cells; host or cells: MKN-45 (JCRB0254)
T2 sequence (P08581 25-1390): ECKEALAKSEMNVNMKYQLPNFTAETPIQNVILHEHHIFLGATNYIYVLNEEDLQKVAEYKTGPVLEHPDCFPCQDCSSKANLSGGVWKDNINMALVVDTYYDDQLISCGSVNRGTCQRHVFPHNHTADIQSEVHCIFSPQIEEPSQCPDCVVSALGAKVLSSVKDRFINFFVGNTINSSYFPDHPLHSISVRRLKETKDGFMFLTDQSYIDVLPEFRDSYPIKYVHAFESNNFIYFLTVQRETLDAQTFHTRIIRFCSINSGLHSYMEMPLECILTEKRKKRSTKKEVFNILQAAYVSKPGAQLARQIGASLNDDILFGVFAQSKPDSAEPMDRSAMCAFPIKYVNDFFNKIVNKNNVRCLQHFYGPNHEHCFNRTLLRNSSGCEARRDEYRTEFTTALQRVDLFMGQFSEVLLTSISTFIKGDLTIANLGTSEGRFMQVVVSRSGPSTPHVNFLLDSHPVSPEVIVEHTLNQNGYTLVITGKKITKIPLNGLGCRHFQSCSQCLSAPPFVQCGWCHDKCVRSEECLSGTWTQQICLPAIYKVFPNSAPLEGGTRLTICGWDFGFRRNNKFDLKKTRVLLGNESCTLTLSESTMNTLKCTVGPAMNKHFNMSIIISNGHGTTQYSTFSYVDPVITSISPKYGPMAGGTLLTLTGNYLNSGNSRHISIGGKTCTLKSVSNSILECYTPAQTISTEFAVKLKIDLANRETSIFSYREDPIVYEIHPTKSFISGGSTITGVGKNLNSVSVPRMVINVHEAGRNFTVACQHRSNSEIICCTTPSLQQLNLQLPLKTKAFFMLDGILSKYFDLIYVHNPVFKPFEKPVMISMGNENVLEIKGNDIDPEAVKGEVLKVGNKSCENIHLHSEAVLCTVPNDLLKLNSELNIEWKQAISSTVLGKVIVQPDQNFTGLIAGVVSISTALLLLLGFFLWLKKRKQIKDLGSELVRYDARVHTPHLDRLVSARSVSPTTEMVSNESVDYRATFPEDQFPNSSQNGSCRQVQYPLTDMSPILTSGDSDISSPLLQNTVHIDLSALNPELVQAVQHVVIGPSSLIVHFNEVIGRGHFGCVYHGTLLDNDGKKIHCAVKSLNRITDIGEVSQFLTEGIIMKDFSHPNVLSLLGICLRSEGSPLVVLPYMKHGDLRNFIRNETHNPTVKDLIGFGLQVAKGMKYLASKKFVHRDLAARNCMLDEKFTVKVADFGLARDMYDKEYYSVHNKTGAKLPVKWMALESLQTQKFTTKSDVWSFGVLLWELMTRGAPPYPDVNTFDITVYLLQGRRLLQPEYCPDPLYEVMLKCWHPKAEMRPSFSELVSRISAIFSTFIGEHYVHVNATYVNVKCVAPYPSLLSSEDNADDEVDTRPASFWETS
Nature of the experiment: MKN-45 phospho-MET ELISA. The following applies: 6 h compound, 40 ng/mL HGF 10 min, read-out: MKN-45 pMET. Type of experiment: cell-based. The procedure: MKN-45 cells (catalog #JCRB0254) were obtained from the Japan Health Science Research Resources Bank, Osaka, Japan. Briefly, cells were grown in RPMI 1640 media supplemented with 10% characterized fetal bovine serum (Invitrogen, Carlsbad, Calif.) at 37° C., 5% CO2, 95% humidity. Cells were allowed to expand until reaching 70-95% confluency at which point they were subcultured or harvested for assay use.
Twenty-five thousand cells in RPMI-1640 supplemented with 10% characterized fetal bovine serum (Invitrogen, Carlsbad, Calif.) were added per well in a 96-well black clear bottom plate (Corning, Corning, N.Y.). Cells were then incubated overnight at 37 degrees Celsius, 5% CO2, 95% humidity. Media was then aspirated and cells were washed with PBS. A serial dilution of test compound was dispensed into another 96-well black clear bottom plate (Corning, Corning, N.Y.) containing serum-free RPMI-1640. Compound was added to plates containing cells and incubated for 6 hours at 37 degrees Celsius, 5% CO2, 95% humidity. Cells were stimulated with 40 ng/mL HGF (R&D Systems, Minneapolis, Minn.) for 10 minutes, and then lysed. Phospho-MET in cell lysates was detected using the DuoSet IC Human Phospho-HGF R/c-MET ELISA (R&D Systems, Minneapolis, Minn.). Data was analyzed using Prism software (Graphpad, San Diego, Calif.) to calculate IC50 values.

In a further experiment the test system is EBC-1 cells. Nature of the experiment: EBC-1 cell proliferation assay (resazurin). Type of experiment: cell-based. The following applies: Homo sapiens, 67 h + 5 h resazurin, read-out: EBC1 Proliferation. The method, then: as §1
A serial dilution of test compound was dispensed into a 96-well black clear bottom plate (Corning, Corning, N.Y.). For each cell line, five thousand cells were added per well in 200 μL complete growth medium. Plates were incubated for 67 hours at 37° C., 5% CO2, 95% humidity. At the end of the incubation period 40 μL of a 440 μM solution of resazurin (Sigma, St. Louis, Mo.) in PBS was added to each well and incubated for an additional 5 hours at 37° C., 5% CO2, 95% humidity. Plates were read on a Synergy2 reader (Biotek, Winooski, Vt.) using an excitation of 540 nm and an emission of 600 nm. Data was analyzed using Prism software (GraphPad, San Diego, Calif.) to calculate IC50 values.
On the technique in general: Alamar Blue is a resazurin reagent that responds to reducing activity.

Molecules are shown by their SMILES. Where a name gives a salt, the structure may show the parent alone.

T1 sequence (P08581 25-1390): as above

Regarding `O=C(Nc1cc(F)c(Oc2ccnc(-c3cnn(CCO)c3)c2)cc1F)c1cccn(-c2ccc(F)cc2)c1=O` [Example 3, N-(2,5-difluoro-4-((2-(1-(2-hydroxyethyl)-1H-pyrazol-4-yl)pyridin-4-yl)oxy)phenyl)-1-(4-fluorophenyl)-2-oxo-1,2-dihydropyridine-3-carboxamide hydrochloride], the results for the IC50 in experiment [1], in experiment [2] and in experiment [3] were no more than 0.1 µM, greater than 1 µM and no more than 0.1 µM, respectively.
On to `CCOc1ccn(-c2ccc(F)cc2)c(=O)c1C(=O)Nc1cc(F)c(Oc2ccnc(-c3cnn(C)c3)c2)cc1F` [Example 2, N-(2,5-difluoro-4-(2-(1-methyl-1H-pyrazol-4-yl)pyridin-4-yloxy)phenyl)-4-ethoxy-1-(4-fluorophenyl)-2-oxo-1,2-dihydropyridine-3-carboxamide], for which the IC50 is no more than 0.1 µM in experiment [1], greater than 1 µM in experiment [2], no more than 0.1 µM with EBC-1 cells and no more than 0.1 µM in experiment [3].
With `CCNc1ccn(-c2ccc(F)cc2)c(=O)c1C(=O)Nc1cc(F)c(Oc2ccnc(-c3cnn(C)c3)c2)cc1F` [Example 5, N-(2,5-difluoro-4-((2-(1-methyl-1H-pyrazol-4-yl)pyridin-4-yl)oxy)phenyl)-4-(ethylamino)-1-(4-fluorophenyl)-2-oxo-1,2-dihydropyridine-3-carboxamide], the IC50 in experiment [2] is greater than 1 µM; in the experiment on EBC-1 cells it was 0.1 to 1 µM.
As for `Cn1cc(-c2cc(Oc3cc(F)c(NC(=O)c4cccn(-c5ccc(F)cc5)c4=O)cc3F)ccn2)cn1` [Example 1, N-(2,5-difluoro-4-((2-(1-methyl-1H-pyrazol-4-yl)pyridin-4-yl)oxy)phenyl)-1-(4-fluorophenyl)-2-oxo-1,2-dihydropyridine-3-carboxamide], the IC50 is no more than 0.1 µM in experiment [1], greater than 1 µM in experiment [2], no more than 0.1 µM in the experiment with EBC-1 cells and no more than 0.1 µM in experiment [3].
